{"source": "patent US20040058876A1", "about": "“Secondary binding site of dipeptidyl peptidase IV (DP IV)” (priority 2002, published 2004)", "key": {"DP IV [1]": {"system": "DP IV", "assay": "Determination of the half-life (t1/2) of DP IV-catalyzed peptide truncation by MALDI-TOF MS", "conditions": "truncation by DP IV", "experimental": "(§1) The degradation fate of peptides was measured by monitoring the signal intensity of the pseudomolecular ion peaks of parent peptides and N-terminal shorted peptides versus time when incubated with 40 mU procine DP IV, recombinant human DP IV or serum DP IV activity. […] As control served the preincubation of DP IV with 0.01M Tris-buffer (Sigma-Aldrich, Deisenhofen, Germany). The mass spectrometer employed was a Hewlett-Packard G2025 model with a linear time of flight analyzer; samples (4 μL) were mixed 1:1 v/v with matrix (44 mg diammonium-hydrogen-citrate and 30 mg 2′,6′-dihydroxyacetophenone in 1 ml aqueous solution containing 50% acetonitrile and 0.05% trifluoroacetic acid; Sigma-Aldrich), transferred to a probe tip and immediately evaporated using the Hewlett-Packard G2024A (Hewlett-Packard, Waldbronn, Germany) sample preparation vacuum chamber. 250 single laser-shot spectra were accumulated. This method of monitoring biodegradation has been validated and allows the general comparison of half-degradation times (t1/2) under various conditions.\n(§2) The t1/2-calculation followed this procedure:\n(§3) The height of the substrate peak was measured and set as 100% at time=0. During the reaction course the sum of substrate and product peak height were set as 100% and the percentage of the remaining substrate peak (also expressed as relative concentration) was determined. Diagrammed relative substrate concentration versus time t1/2 can be calculated based on first order exponential decay reaction course. [formula]"}, "[2]": {"assay": "Determination of the half-life (t1/2) of DP IV-catalyzed peptide truncation by MALDI-TOF MS", "experimental": "as §1, §2, §3"}, "DP IV [3]": {"system": "DP IV", "assay": "Peptide truncation by DP IV after preincubation with TFTSDY (MALDI-TOF)", "format": "biochemical", "experimental": "(§4) 250 single laser-shot spectra were accumulated.\n(§5) In order to investigate directly the influence of TFTSDY on the DP IV-catalyzed peptide hydrolysis the MALDI-TOF assay was used.\n(§6) As described before (determination of t1/2) DP IV and TFTSDY were preincubated and the reaction was started by adding the enzyme/hexapeptide mixture to substrate/buffer mix. The control reaction mixture consisted of buffer, enzyme and substrate. From the curves of the first order exponential the initial rate (v1) for the control and the reversible inhibited reaction was calculated."}, "rec. human DP IV": {"molecular_target": "T1, rec. human DP IV (Homo sapiens, UniProt P27487)", "T1 construct": "His6 (N); made in house; host or cells: Pichia pastoris X-33 (vector pPICαC, secreted into the medium)", "T1 sequence (P27487 37-766)": "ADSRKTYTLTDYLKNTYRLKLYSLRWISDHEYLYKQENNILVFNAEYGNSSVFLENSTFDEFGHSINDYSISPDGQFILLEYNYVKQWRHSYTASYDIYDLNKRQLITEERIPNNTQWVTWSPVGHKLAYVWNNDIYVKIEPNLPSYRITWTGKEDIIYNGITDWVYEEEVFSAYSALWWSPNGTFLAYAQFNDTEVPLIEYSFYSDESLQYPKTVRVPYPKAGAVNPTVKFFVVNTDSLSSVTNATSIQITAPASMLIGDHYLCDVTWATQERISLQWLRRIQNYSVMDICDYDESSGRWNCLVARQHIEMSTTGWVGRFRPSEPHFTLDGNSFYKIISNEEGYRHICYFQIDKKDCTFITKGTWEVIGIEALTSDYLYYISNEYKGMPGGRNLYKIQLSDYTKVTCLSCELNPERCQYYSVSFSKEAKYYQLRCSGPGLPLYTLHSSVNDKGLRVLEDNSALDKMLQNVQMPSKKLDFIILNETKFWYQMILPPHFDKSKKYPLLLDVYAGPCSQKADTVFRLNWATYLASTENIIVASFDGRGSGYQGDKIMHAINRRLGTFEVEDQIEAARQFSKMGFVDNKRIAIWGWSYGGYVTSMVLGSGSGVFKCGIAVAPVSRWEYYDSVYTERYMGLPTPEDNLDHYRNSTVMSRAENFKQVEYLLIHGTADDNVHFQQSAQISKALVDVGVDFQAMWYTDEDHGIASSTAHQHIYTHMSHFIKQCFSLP", "assay": "MALDI-TOF approach: Ki of TFTSDY on DP IV-catalyzed peptide truncation", "format": "biochemical", "conditions": "K1, inhibitory effect on DP IV-catalyzed peptide truncation", "experimental": "as §4, §5, §6\n(§7) For the uninfluenced reaction the Michaelis-Menten-equation was used.\n(§8) Vi was calculated from plotting the relative substrate concentration versus time.\n(§9) Km is given, also the substrate concentration. [formula]\n(§10) For the reversible inhibited reaction the following reaction was used to calculate Kl: [formula]"}, "porcine DP IV": {"molecular_target": "T2, porcine DP IV (Sus scrofa, UniProt P22411)", "T2 construct": "purified DP IV from human, from porcine kidney, of recombinant human DP IV; from tissue; host or cells: porcine kidney", "assay": "MALDI-TOF approach: Ki of TFTSDY on DP IV-catalyzed peptide truncation", "format": "biochemical", "conditions": "K1, inhibitory effect on DP IV-catalyzed peptide truncation", "experimental": "as §4, §5, §6, §7, §8, §9, §10"}, "[4]": {"molecular_target": "T3, mu 15: recombinant human DP IV, mutation R560A (Homo sapiens, UniProt P27487, R560A)", "T3 construct": "His6 (N); made in house; host or cells: Pichia pastoris X-33 (vector pPICαC, secreted into the medium)", "T3 sequence (P27487 37-766 R560A)": "as the sequence (P27487 37-766) above, with R524A counted along it", "assay": "Determination of Ki in competition to standard substrate GP-4NA", "format": "biochemical", "conditions": "mu 15 DP IV, competition to GP-4NA", "experimental": "(§11) In order to measure the inhibition constant Ki a photometric assay was used The peptides were measured as competitors of the standard substrate GP-4-Nitroanilide. Three different substrate concentrations (0.4 mM to 0.05 mM) were combined with 8 different competitor concentrations (0.5 mM to 2 μM). […] Experiments were carried out under standard conditions: 30° C. in pH 7.6 40 mM HEPES (Sigma-Aldrich) buffer. Nitroaniline production was monitored using a HTS 7000+ microplate reader (PerkinElmer, Überlingen, Germany).\n(§12) For a reversible competitive inhibition is to assumed: [formula]"}, "[5]": {"molecular_target": "T4, mu 16: recombinant human DP IV, mutation W629A (Homo sapiens, UniProt P27487, W629A)", "T4 construct": "His6 (N); made in house; host or cells: Pichia pastoris X-33 (vector pPICαC, secreted into the medium)", "T4 sequence (P27487 37-766 W629A)": "as the sequence (P27487 37-766) above, with W593A counted along it", "assay": "Determination of Ki in competition to standard substrate GP-4NA", "format": "biochemical", "conditions": "mu 16 DP IV, competition to GP-4NA", "experimental": "as §11, §12"}, "[6]": {"molecular_target": "T5, rh wt: recombinant human DP IV, wild type (Homo sapiens, UniProt P27487)", "T5 construct": "His6 (N); made in house; host or cells: Pichia pastoris X-33 (vector pPICαC, secreted into the medium)", "T5 sequence (P27487 37-766)": "as the sequence (P27487 37-766) above", "assay": "Determination of Ki in competition to standard substrate GP-4NA", "format": "biochemical", "conditions": "competition to GP-4NA", "experimental": "as §11, §12"}}, "note": "Where two headings read alike, the source gives them in different places. Residues, ends and D or L forms follow the SMILES beside them."}
{"compound": "C[C@@H](O)[C@H](NC(=O)CNC(=O)[C@H](CCC(=O)O)NC(=O)CNC(=O)[C@@H](N)Cc1ccc(O)cc1)C(=O)N[C@@H](Cc1ccccc1)C(=O)O", "note": "[G^2GIP1-6] (H-YGEGTF-OH)", "values": [{"measurement": "half-life", "setting": "DP IV [1]", "result": "no degradation"}]}
{"compound": "CC[C@H](C)[C@H](NC(=O)[C@H](CO)NC(=O)[C@H](Cc1ccc(O)cc1)NC(=O)[C@H](CC(=O)O)NC(=O)[C@H](CO)NC(=O)[C@@H](NC(=O)[C@H](Cc1ccccc1)NC(=O)[C@@H](NC(=O)CNC(=O)[C@H](CCC(=O)O)NC(=O)CNC(=O)[C@@H](N)Cc1ccc(O)cc1)[C@@H](C)O)[C@@H](C)CC)C(=O)N[C@@H](C)C(=O)N[C@@H](CCSC)C(=O)N[C@@H](CC(=O)O)C(=O)N[C@@H](CCCCN)C(=O)N[C@H](C(=O)N[C@@H](Cc1c[nH]cn1)C(=O)N[C@@H](CCC(N)=O)C(=O)N[C@@H](CCC(N)=O)C(=O)N[C@@H](CC(=O)O)C(=O)N[C@@H](Cc1ccccc1)C(=O)N[C@H](C(=O)N[C@@H](CC(N)=O)C(=O)N[C@@H](Cc1c[nH]c2ccccc12)C(=O)N[C@@H](CC(C)C)C(=O)N[C@@H](CC(C)C)C(=O)N[C@@H](C)C(=O)N[C@@H](CCC(N)=O)C(=O)N[C@@H](CCCCN)C(=O)O)C(C)C)[C@@H](C)CC", "note": "[G^2GIP1-30]", "values": [{"measurement": "half-life", "setting": "[2]", "result": 2.5, "unit": "h"}]}
{"compound": "CC[C@H](C)[C@H](NC(=O)[C@H](CO)NC(=O)[C@H](Cc1ccc(O)cc1)NC(=O)[C@H](CC(=O)O)NC(=O)[C@H](CO)NC(=O)[C@@H](NC(=O)[C@H](Cc1ccccc1)NC(=O)[C@@H](NC(=O)CNC(=O)[C@H](CCC(=O)O)NC(=O)[C@H](CO)NC(=O)[C@@H](N)Cc1ccc(O)cc1)[C@@H](C)O)[C@@H](C)CC)C(=O)N[C@@H](C)C(=O)N[C@@H](CCSC)C(=O)N[C@@H](CC(=O)O)C(=O)N[C@@H](CCCCN)C(=O)N[C@H](C(=O)N[C@@H](Cc1c[nH]cn1)C(=O)N[C@@H](CCC(N)=O)C(=O)N[C@@H](CCC(N)=O)C(=O)N[C@@H](CC(=O)O)C(=O)N[C@@H](Cc1ccccc1)C(=O)N[C@H](C(=O)N[C@@H](CC(N)=O)C(=O)N[C@@H](Cc1c[nH]c2ccccc12)C(=O)N[C@@H](CC(C)C)C(=O)N[C@@H](CC(C)C)C(=O)N[C@@H](C)C(=O)N[C@@H](CCC(N)=O)C(=O)N[C@@H](CCCCN)C(=O)O)C(C)C)[C@@H](C)CC", "note": "[S^2GIP1-30]", "values": [{"measurement": "half-life", "setting": "[2]", "result": 2.29, "unit": "h"}]}
{"compound": "C[C@@H](O)[C@H](N)C(=O)N[C@@H](Cc1ccccc1)C(=O)N[C@H](C(=O)N[C@@H](CO)C(=O)N[C@@H](CC(=O)O)C(=O)N[C@@H](Cc1ccc(O)cc1)C(=O)O)[C@@H](C)O", "note": "[TFTSDY] (H-TFTSDY-OH; N-terminus and C-terminus assumed)", "values": [{"measurement": "influence on affinity of oligopeptides such as GIP, VIP, glucagon", "setting": "DP IV [3]; DP IV preincubated with TFTSDY", "result": "considerably reduced"}, {"measurement": "influence on binding and hydrolysis of small dipeptide substrates", "setting": "DP IV [3]; DP IV preincubated with TFTSDY", "result": "only slightly influenced"}, {"measurement": "effect on truncation of substrate by DP IV", "setting": "DP IV [3]; substrate Rantes1-15, 160 μM TFTSDY", "result": "No differences"}, {"measurement": "Ki", "setting": "rec. human DP IV; substrate GIP", "result": 14, "unit": "µM"}, {"measurement": "Ki", "setting": "rec. human DP IV; substrate PACAP-27", "result": 26.7, "unit": "µM"}, {"measurement": "Ki", "setting": "rec. human DP IV; substrate PACAP-38", "result": 2.8, "unit": "µM"}, {"measurement": "Ki", "setting": "rec. human DP IV; substrate glucagon", "result": 3.7, "unit": "µM"}, {"measurement": "Ki", "setting": "porcine DP IV; substrate GIP", "result": 65.9, "unit": "µM"}, {"measurement": "Ki", "setting": "porcine DP IV; substrate GLP-1", "result": 13.7, "unit": "µM"}, {"measurement": "Ki", "setting": "porcine DP IV; substrate NPY", "result": 17.2, "unit": "µM"}, {"measurement": "Ki", "setting": "porcine DP IV; substrate RANTES1-15", "result": "≥ 12300", "unit": "µM"}, {"measurement": "Ki", "setting": "porcine DP IV; substrate glucagon", "result": 6.8, "unit": "µM"}]}
{"compound": "CC(C)[C@H](NC(=O)[C@@H](N)Cc1ccc(O)cc1)C(=O)N[C@@H](CCC(=O)O)C(=O)NCC(=O)N[C@H](C(=O)N[C@@H](Cc1ccccc1)C(=O)O)[C@@H](C)O", "note": "[V^2GIP1-6] (H-YVEGTF-OH)", "values": [{"measurement": "half-life", "setting": "DP IV [1]", "result": "no degradation"}]}
{"compound": "CC[C@H](C)[C@H](NC(=O)[C@H](CO)NC(=O)[C@H](Cc1ccc(O)cc1)NC(=O)[C@H](CC(=O)O)NC(=O)[C@H](CO)NC(=O)[C@@H](NC(=O)[C@H](Cc1ccccc1)NC(=O)[C@@H](NC(=O)CNC(=O)[C@H](CCC(=O)O)NC(=O)[C@@H](NC(=O)[C@@H](N)Cc1ccc(O)cc1)C(C)C)[C@@H](C)O)[C@@H](C)CC)C(=O)N[C@@H](C)C(=O)N[C@@H](CCSC)C(=O)N[C@@H](CC(=O)O)C(=O)N[C@@H](CCCCN)C(=O)N[C@H](C(=O)N[C@@H](Cc1c[nH]cn1)C(=O)N[C@@H](CCC(N)=O)C(=O)N[C@@H](CCC(N)=O)C(=O)N[C@@H](CC(=O)O)C(=O)N[C@@H](Cc1ccccc1)C(=O)N[C@H](C(=O)N[C@@H](CC(N)=O)C(=O)N[C@@H](Cc1c[nH]c2ccccc12)C(=O)N[C@@H](CC(C)C)C(=O)N[C@@H](CC(C)C)C(=O)N[C@@H](C)C(=O)N[C@@H](CCC(N)=O)C(=O)N[C@@H](CCCCN)C(=O)O)C(C)C)[C@@H](C)CC", "note": "[V^2GIP1-30]", "values": [{"measurement": "half-life", "setting": "[2]", "result": 4.97, "unit": "h"}]}
{"compound": "C[C@H](NC(=O)[C@@H](N)Cc1ccc(O)cc1)C(=O)N[C@@H](CCC(=O)O)C(=O)N[C@@H](CO)C(=O)N[C@H](C(=O)N[C@@H](Cc1ccccc1)C(N)=O)[C@@H](C)O", "note": "[YAESTF amide] (H-YAESTF-NH2; N-terminus assumed)", "values": [{"measurement": "Ki", "setting": "[4]; read-out: Ki", "result": 1.14, "unit": "µM"}, {"measurement": "Ki", "setting": "[5]; read-out: Ki", "result": 1.06, "unit": "µM"}]}
{"compound": "Glucagon (1-14): glucagon fragment 1-14 (HSQGTFTSDYSKYL; Glucagon; UniProt P01275 53-66, looked up, fragment) [reference compound]", "values": [{"measurement": "Ki", "setting": "[4]", "result": "no inhibition"}, {"measurement": "Ki", "setting": "[6]", "result": "no inhibition"}, {"measurement": "Ki", "setting": "[5]", "result": "no inhibition"}]}
